Among the data in patent publication US4298610A, “Ester derivatives of quinolopyran-4-one-2-carboxylic acids and antiallergic antasthmatics” (priority 1978, dated 1981) are inhibition in vivo values, retold here.

The subject of one test is passive cutaneous anaphylaxis. As to the kind of experiment: passive cutaneous anaphylaxis test (P.C.A.) on rats, oral administration. It is filed as in vivo, rat (SLC Wister). The note with it: 0.5 h, rat, 30 mg/kg, antigen 30 minutes after administration, read-out: Percent inhibition (%). The procedure: Various 5-hydroxy-quinolopyran-4-one-2-carboxylic acid esters in terms of the R group represented by the general formula [I] were prepared. […] In order to estimate the efficacy of each compound as an anti-allergic antasthmatic, the efficacy was evaluated according to a passive cutaneous anaphylaxis test (P.C.A.) on rats.
To SLC Wister rats were administered intracutaneously egg white albumin recrystallized 5 times and Bodetallapertussis Vaccine, and serum was collected after 13 days from the rats. […] A physiological salt solution in which egg white albumin and a dye (Evans' blue) were dissolved was administered intravenously, 30 minutes after the oral administration, to the rats; and 30 minutes thereafter the back skins of the rats were peeled off. The dye that transuded from the peeled skin was extracted with Na2 SO4 and acetone, and the quantities of the dye were measured by colorimetry at 620 m μ.
For `Cc1ccc2c(nc(O)c3c(=O)cc(C(=O)OC4CCCCC4)oc32)c1C` [1-cyclohexyl ester of 7,8-dimethyl-5-hydroxy-quinolo[4,3-b]pyran-4-one-2-carboxylic acid, reference compound], the inhibition in vivo at 30 mg/kg turned out to be 33.7%.
The same measure, in the same setting: for `Cc1ccc2c(nc(O)c3c(=O)cc(C(=O)OCC(C)(C)C)oc32)c1C` [2,2-dimethyl-1-propyl ester of 7,8-dimethyl-5-hydroxy-quinolo[4,3-b]pyran-4-one-2-carboxylic acid] the value was 93.2%; for `Cc1ccc2nc(O)c3c(=O)cc(C(=O)OCC(C)(C)C)oc3c2c1` [2,2-dimethyl-1-propyl ester of 9-methyl-5-hydroxy-quinolo[4,3-b]pyran-4-one-2-carboxylic acid], 58.4%.
On the same count and under the same terms, under `CCC(CC)COC(=O)c1cc(=O)c2c(O)nc3c(C)c(C)ccc3c2o1` [2-ethyl-1-butyl ester of 7,8-dimethyl-5-hydroxy-quinolo[4,3-b]pyran-4-one-2-carboxylic acid, reference compound] stands 49.1%; under `CCCCC(C)OC(=O)c1cc(=O)c2c(O)nc3c(C)c(C)ccc3c2o1` (stereo not drawn) [2-hexyl ester of 7,8-dimethyl-5-hydroxy-quinolo[4,3-b]pyran-4-one-2-carboxylic acid], 94.7%.
Still for that read-out and setting: for `CCC(C)COC(=O)c1cc(=O)c2c(O)nc3c(C)c(C)ccc3c2o1` (stereo not drawn) [2-methyl-1-butyl ester of 7,8-dimethyl-5-hydroxy-quinolo[4,3-b]pyran-4-one-2-carboxylic acid] the value was 99.8%; for `CCC(C)COC(=O)c1cc(=O)c2c(O)nc3ccc(C)cc3c2o1` (stereo not drawn) [2-methyl-1-butyl ester of 9-methyl-5-hydroxy-quinolo[4,3-b]pyran-4-one-2-carboxylic acid], 83%; for `CCCC(C)COC(=O)c1cc(=O)c2c(O)nc3ccc(C)cc3c2o1` (stereo not drawn) [2-methyl-1-pentyl ester of 9-methyl-5-hydroxy-quinolo[4,3-b]pyran-4-one-2-carboxylic acid], 83.8%.
`Cc1ccc2c(nc(O)c3c(=O)cc(C(=O)OCC(C)C)oc32)c1C` [2-methyl-1-propyl ester of 7,8-dimethyl-5-hydroxy-quinolo[4,3-b]pyran-4-one-2-carboxylic acid, reference compound]: the inhibition in vivo at 30 mg/kg came out at 2.5%.
Consider `CCC(OC(=O)c1cc(=O)c2c(O)nc3c(C)c(C)ccc3c2o1)C(C)C` (stereo not drawn) [2-methyl-3-pentyl ester of 7,8-dimethyl-5-hydroxy-quinolo[4,3-b]pyran-4-one-2-carboxylic acid, reference compound], for which the inhibition in vivo at 30 mg/kg is 32.1%.
The same measure, in the same setting: for `CCCC(C)OC(=O)c1cc(=O)c2c(O)nc3c(C)c(C)ccc3c2o1` (stereo not drawn) [2-pentyl ester of 7,8-dimethyl-5-hydroxy-quinolo[4,3-b]pyran-4-one-2-carboxylic acid] the value was 95.1%.
The same measure, in the same setting: for `CCCC(C)OC(=O)c1cc(=O)c2c(O)nc3ccc(C)cc3c2o1` (stereo not drawn) [2-pentyl ester of 9-methyl-5-hydroxy-quinolo[4,3-b]pyran-4-one-2-carboxylic acid] the value was 70%; for `Cc1ccc2c(nc(O)c3c(=O)cc(C(=O)OCCC(C)(C)C)oc32)c1C` [3,3-dimethyl-1-butyl ester of 7,8-dimethyl-5-hydroxy-quinolo[4,3-b]pyran-4-one-2-carboxylic acid, reference compound], 26.5%; for `Cc1ccc2c(nc(O)c3c(=O)cc(C(=O)OC(C)C(C)(C)C)oc32)c1C` (stereo not drawn) [3,3-dimethyl-2-butyl ester of 7,8-dimethyl-5-hydroxy-quinolo[4,3-b]pyran-4-one-2-carboxylic acid, reference compound], 42.7%.
Still for that read-out and setting: for `CCCC(CC)OC(=O)c1cc(=O)c2c(O)nc3c(C)c(C)ccc3c2o1` (stereo not drawn) [3-hexyl ester of 7,8-dimethyl-5-hydroxy-quinolo[4,3-b]pyran-4-one-2-carboxylic acid] the value was 96.1%; for `CCCC(CC)OC(=O)c1cc(=O)c2c(O)nc3ccc(C)cc3c2o1` (stereo not drawn) [3-hexyl ester of 9-methyl-5-hydroxy-quinolo[4,3-b]pyran-4-one-2-carboxylic acid], 81.8%.
Regarding `Cc1ccc2c(nc(O)c3c(=O)cc(C(=O)OCCC(C)C)oc32)c1C` [3-methyl-1-butyl ester of 7,8-dimethyl-5-hydroxy-quinolo[4,3-b]pyran-4-one-2-carboxylic acid], the inhibition in vivo at 30 mg/kg stood at 95.5%.
In the case of `COc1cc2nc(O)c3c(=O)cc(C(=O)OCCC(C)C)oc3c2cc1OC` [3-methyl-1-butyl ester of 8,9-dimethoxy-5-hydroxy-quinolo[4,3-b]pyran-4-one-2-carboxylic acid], the inhibition in vivo at 30 mg/kg amounted to 67.3%.
On to `CC(C)CCOC(=O)c1cc(=O)c2c(O)nc3ccc(Cl)cc3c2o1` [3-methyl-1-butyl ester of 9-chloro-5-hydroxy-quinolo[4,3-b]pyran-4-one-2-carboxylic acid], for which the inhibition in vivo at 30 mg/kg is 59.5%.
On the same count and under the same terms, under `CCOC(=O)c1ccc2nc(O)c3c(=O)cc(C(=O)OCCC(C)C)oc3c2c1` [3-methyl-1-butyl ester of 9-ethoxycarbonyl-5-hydroxy-quinolo[4,3-b]pyran-4-one-2-carboxylic acid] stands 52.7%; under `Cc1ccc2nc(O)c3c(=O)cc(C(=O)OCCC(C)C)oc3c2c1` [3-methyl-1-butyl ester of 9-methyl-5-hydroxy-quinolo[4,3-b]pyran-4-one-2-carboxylic acid], 87.2%; under `CCCCc1ccc2nc(O)c3c(=O)cc(C(=O)OCCC(C)C)oc3c2c1` [3-methyl-1-butyl ester of 9-n-butyl-5-hydroxy-quinolo[4,3-b]pyran-4-one-2-carboxylic acid], 64.5%.
Still for that read-out and setting: under `CCC(C)CCOC(=O)c1cc(=O)c2c(O)nc3c(C)c(C)ccc3c2o1` (stereo not drawn) [3-methyl-1-pentyl ester of 7,8-dimethyl-5-hydroxy-quinolo[4,3-b]pyran-4-one-2-carboxylic acid] stands 80.8%; under `Cc1ccc2c(nc(O)c3c(=O)cc(C(=O)OC(C)C(C)C)oc32)c1C` (stereo not drawn) [3-methyl-2-butyl ester of 7,8-dimethyl-5-hydroxy-quinolo[4,3-b]pyran-4-one-2-carboxylic acid, reference compound], 22.6%.
Still for that read-out and setting: under `CCC(C)C(C)OC(=O)c1cc(=O)c2c(O)nc3c(C)c(C)ccc3c2o1` (stereo not drawn) [3-methyl-2-pentyl ester of 7,8-dimethyl-5-hydroxy-quinolo[4,3-b]pyran-4-one-2-carboxylic acid] stands 68.3%.

Still in this test, the particulars now being: 0.5 h, rat, 100 mg/kg, antigen 30 minutes after administration, read-out: Percent inhibition (%).
Regarding `Cc1ccc2c(nc(O)c3c(=O)cc(C(=O)OCC(O)CO)oc32)c1C` (stereo not drawn) [2,3-dihydroxy-propyl ester of 7,8-dimethyl-5-hydroxy-quinolo[4,3-b]pyran-4-one-2-carboxylic acid, reference compound], the inhibition in vivo at 100 mg/kg was 8.6%.
Consider `Cc1ccc2c(nc(O)c3c(=O)cc(C(=O)OCCO)oc32)c1C` [2-hydroxy-ethyl ester of 7,8-dimethyl-5-hydroxy-quinolo[4,3-b]pyran-4-one-2-carboxylic acid, reference compound], for which the inhibition in vivo at 100 mg/kg worked out at 21.4%.
